# In US6168798A, “Non-irritating composition for treating acne and other skin conditions” (Bristol-Myers Squibb Company, priority 1997, dated 2001):
# Tested on: isolated bovine corneas
# Experimental: The bovine corneal opacity and permeability assay (BCOP) was used to assess the ocular irritancy of test formulations to isolated bovine corneas. Bovine corneas, obtained as a by-product from freshly slaughtered animals, were mounted in special holders and exposed to the test formulations. An in vitro score was determined for each test material based on the induction of opacity and permeability to fluorescein in the isolated bovine corneas. In these experiments, the potential ocular irritancy of the composition formulated in accordance with the invention and exemplified in Table 1 was compared with that of the commercially-available comparative product. Ocular irritancy was measured by changes in opacity and permeability to fluorescein in isolated bovine corneas. Five corneas were treated with each test material. Based on changes in corneal opacity and permeability relative to control corneas, an in vitro score was determined. […]
# After a minimum of one hour of incubation, the corneal holders with the corneas in place were removed from the incubator and the medium was removed from both compartments and replaced with fresh medium. The opacity was determined for each cornea using a Spectro Design OP-KIT opacitometer. Three corneas whose opacity readings were close to the median opacity for all of the corneas were selected as the negative control corneas. […]
compound,measurement,value
"CCO [ethanol (95%), ethanol]",Irritation potential rating from in vitro score,moderate to severe
